The target of experiment [1] is T1, NRZ R86A (Danio rerio, UniProt Q8UWD5, R86A).
T1 sequence (Q8UWD5 1-148 R86A): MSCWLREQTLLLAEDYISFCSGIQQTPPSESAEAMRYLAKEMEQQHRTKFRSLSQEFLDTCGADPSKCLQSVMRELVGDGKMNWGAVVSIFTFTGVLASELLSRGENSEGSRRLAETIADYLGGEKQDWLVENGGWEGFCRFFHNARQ
The experiment in a line: ITC affinity measurement of NRZ: BH3 motif interactions (mutant R86A). Format: binding, zebrafish (Danio rerio). The conditions noted are these: MicroCal iTC200, 25 °C, 25 mM HEPES pH 7.5, 150 mM NaCl, 2 mM BME, protein 30 μM, peptide 300 μM, 19 injections of 2.0 μl, means of three replicates with standard error. The arrangement: key to NRZ R86A KD: NB: no binding. As for the experimental part:
(§1) NRZ mutants D79A and R86A were codon-optimized and synthesized (Genscript) and subsequently cloned into the pGEX-6P-3 vector (Invitrogen). Expression and purification were performed using the same protocol as for wild-type NRZ.
(§2) Binding affinities were measured by isothermal titration calorimetry (ITC) employing a MicroCal iTC200 system (GE Healthcare) at 25 °C using wt-NRZ, and NRZ mutants D79A and R86A in 25 mM HEPES, pH 7.5, 150 mM NaCl, 2 mM BME at a final concentration of 30 μM as previously described. BH3 motif peptide ligands were used at a concentration of 300 μM and titrated using 19 injections of 2.0 μl of ligand. All affinity measurements were performed in triplicate. Protein concentrations were measured using a Nanodrop UV spectrophotometer (Thermo Scientific, Scoresbury, Australia) at a wavelength of 280 nm. Peptide concentrations were calculated based on the dry peptide weight after synthesis. The zebrafish BH3-motif peptides used were commercially synthesized and were purified to a final purity of 95% (GenScript, Piscataway, New Jersey, US). zBim: […] (UniProt accession code B2KKY9, residues 117–142), zPuma: […] (accession code Q0GKC9, residues 123–148), zBik: […] (accession code Q5RGV6, residues 30–55), zBax: […] (accession code Q9I9N4, residues 52–79), zBid: […] (accession code Q0GKC5, residues 85–112), zBad: […] (accession code A7MCM4, 88–113 residues), zBmf: […] (accession code Q0GKC7, residues 89–114), zNoxa: […] (accession code Q0GKC8, residues 5–30), zBok: […] (accession code Q7T381, residues 60–85), zBeclin: […] (accession code F1RCP1, residues 102–127), zBcl-wav: […] (accession code D2Y5Q2, residues 42–67).

Experiment [2] has as its target T2, NRZ D79A (Danio rerio, UniProt Q8UWD5, D79A).
T2 sequence (Q8UWD5 1-148 D79A): T1 sequence (Q8UWD5 1-148 R86A) with D79A, A86R
In words: ITC affinity measurement of NRZ: BH3 motif interactions (mutant D79A). The experiment is classed as binding, zebrafish (Danio rerio). The arrangement: key to NRZ D79A KD: NB: no binding. The settings on record: MicroCal iTC200, 25 °C, 25 mM HEPES pH 7.5, 150 mM NaCl, 2 mM BME, protein 30 μM, peptide 300 μM, 19 injections of 2.0 μl, means of three replicates with standard error. As to the method:
as §1, §2

The target in experiment [3] is T3, wt-NRZ (Danio rerio, UniProt Q8UWD5).
T3 sequence (Q8UWD5 1-148): T1 sequence (Q8UWD5 1-148 R86A) with A86R
In words: ITC affinity measurement of NRZ: BH3 motif interactions (wild type). The experiment is classed as binding, zebrafish (Danio rerio). The conditions noted are these: MicroCal iTC200, 25 °C, 25 mM HEPES pH 7.5, 150 mM NaCl, 2 mM BME, NRZ 30 μM, peptide 300 μM, 19 injections of 2.0 μl, means of three replicates with standard error. As to the method: as §2

The target of experiment [4] is NRZ R86A (zebrafish (Danio rerio)) (UniProt Q8UWD5). In words: ITC; MicroCal iTC200, 25 °C; NRZ (wt, D79A or R86A) at 30 μM in 25 mM HEPES pH 7.5, 150 mM NaCl, 2 mM BME; BH3 peptide at 300 μM titrated in 19 injections of 2.0 μl; triplicate. Background: ITC needs no label: the signal is the heat of the interaction.
Experiment [5] has as its target NRZ D79A (zebrafish (Danio rerio)) (UniProt Q8UWD5). Described as above.
In experiment [6] the target is NRZ (zebrafish pro-survival Bcl-2 protein), lacking the 28 C-terminal residues (zebrafish (Danio rerio)). The experiment is described as above.

Substitutions are numbered along the chain they refer to. Residues, ends and D or L forms follow the SMILES beside them. No end group written: not given here.

Usually Kd stands for the equilibrium constant for the complex coming apart. Regarding `CC[C@H](C)[C@H](NC(=O)[C@H](CCC(N)=O)NC(=O)[C@H](CCC(N)=O)NC(=O)[C@H](CC(C)C)NC(=O)[C@H](CS)NC(=O)[C@H](CCC(N)=O)NC(=O)[C@H](C)NC(=O)[C@H](CC(C)C)NC(=O)[C@H](CCCNC(=N)N)NC(=O)[C@H](CCCCN)NC(=O)[C@H](Cc1c[nH]cn1)NC(=O)[C@H](CO)NC(=O)[C@@H]1CCCN1C(=O)[C@H](CC(=O)O)NC(=O)[C@H](CS)NC(=O)[C@H](CC(C)C)NC(=O)[C@@H](N)CCC(=O)O)C(=O)NCC(=O)N[C@@H](CC(=O)O)C(=O)N[C@@H](CCC(=O)O)C(=O)N[C@@H](CC(C)C)C(=O)N[C@@H](CC(=O)O)C(=O)NCC(=O)N[C@@H](CC(N)=O)C(=O)N[C@@H](C)C(=O)N[C@@H](CCC(N)=O)C(=O)N[C@@H](CC(C)C)C(=O)N[C@@H](CCC(N)=O)C(=O)O` [Bax] (H-ELCDPSHKRLAQCLQQIGDELDGNAQLQ-OH), the Kd came out at 4600 ± 440 nM in experiment [1] and 264 ± 42 nM in experiment [2].

Turning to ALPPEMVVARELRRIGDEFNRLYCEA [Bim], the Kd was 168 ± 8 nM in experiment [1] and 13 ± 4 nM in experiment [2].

In the case of ALWAAKKYGQQLRRMSDEFDKGQMKR [Bad], the values for the Kd in experiment [1] and in experiment [2] were 4800 ± 88 nM and 3330 ± 41 nM, respectively.

On to AQSVETLIGQKLQLIGDQFYQEHIMH [Bmf], for which the “NRZ R86A KD” value in experiment [1] is “NB”. Also, the “WT NRZ KD” value in experiment [3] is “no detectable affinity and no affinity and NB”. Also, in experiment [2], the “NRZ D79A KD” value is recorded as “NB”.

For the molecule DGGTMENLSRRLKVTSNLFDIMSGQT [Beclin], the “NRZ R86A KD” value in experiment [1] is reported as “NB”. Further, the “WT NRZ KD” value in experiment [3] is “no detectable affinity and NB”; in experiment [3] (listed as Beclin-1), “does not bind”. Also, the “NRZ D79A KD” value in experiment [2] was “NB”.

Molecule EARAAREMAAELIRIADLLEQSVLSQAA [Bid] gave a Kd in experiment [2] of 220 ± 16 nM.

Consider EEQAVERVAVQLRTIGDEMNAVFLQR [Puma], for which the Kd was found to be 2770 ± 162 nM in experiment [1] and 117 ± 5 nM in experiment [2].

With EQTAVVECAQQLRNIGDLLNWKYKLL [Noxa], the dissociation constant Kd came to 510 ± 41 nM in experiment [1] and 335 ± 31 nM in experiment [2].

As to LCPAPSRASAALRHAGDELLIRFPIF [Bcl-wav], the “NRZ R86A KD” value in experiment [1] is given as “ablated”. The dissociation constant (Kd) in experiment [3] stood at 3570 ± 162 nM. For the same molecule, in experiment [2], the “NRZ D79A KD” value is listed as “ablated”.

Consider NMRVTQTIGRQLAQIGDEMDNKWRQE [Bik], for which the Kd in experiment [1] amounted to 17 ± 3 nM; in experiment [2] it was 14 ± 3 nM.

On to ALWAAKKYGQQLRRMSDEFDKGQMKR [zBad BH3 motif peptide], for which the Kd amounted to 4800 nM in experiment [4] and 3330 nM in experiment [5].

LCPAPSRASAALRHAGDELLIRFPIF [zBcl-wav BH3 motif peptide] showed a Kd in experiment [6] of 3570 nM.

Turning to EQTAVVECAQQLRNIGDLLNWKYKLL [zNoxa BH3 motif peptide], the Kd in experiment [4] amounted to 510 nM; in experiment [5], 335 nM.

Turning to EARAAREMAAELIRIADLLEQSVLSQAA [zBid BH3 motif peptide], the Kd in experiment [6] is 409 nM; in experiment [5], 220 nM.

Turning to EEQAVERVAVQLRTIGDEMNAVFLQR [zPuma BH3 motif peptide], the Kd in experiment [4] worked out at 2770 nM; in experiment [5] it was 117 nM.

As for ALPPEMVVARELRRIGDEFNRLYCEA [zBim BH3 motif peptide], the Kd in experiment [6] came to 41 nM; in experiment [4], 168 nM; in experiment [5], 13 nM.

Turning to NMRVTQTIGRQLAQIGDEMDNKWRQE [zBik BH3 motif peptide], the Kd was found to be 12 nM in experiment [6], 17 nM in experiment [4] and 14 nM in experiment [5].

Turning to ELCDPSHKRLAQCLQQIGDELDGNAQLQ [zBax BH3 motif peptide], the Kd amounted to 4600 nM in experiment [4] and 264 nM in experiment [5].

The values are drawn from paper PMC6148235, “A structural investigation of NRZ mediated apoptosis regulation in zebrafish” (Cell Death & Disease, 2018).
